Target: T1, human mAChR M1 (Homo sapiens, UniProt P11229)
T1 sequence (P11229 1-460): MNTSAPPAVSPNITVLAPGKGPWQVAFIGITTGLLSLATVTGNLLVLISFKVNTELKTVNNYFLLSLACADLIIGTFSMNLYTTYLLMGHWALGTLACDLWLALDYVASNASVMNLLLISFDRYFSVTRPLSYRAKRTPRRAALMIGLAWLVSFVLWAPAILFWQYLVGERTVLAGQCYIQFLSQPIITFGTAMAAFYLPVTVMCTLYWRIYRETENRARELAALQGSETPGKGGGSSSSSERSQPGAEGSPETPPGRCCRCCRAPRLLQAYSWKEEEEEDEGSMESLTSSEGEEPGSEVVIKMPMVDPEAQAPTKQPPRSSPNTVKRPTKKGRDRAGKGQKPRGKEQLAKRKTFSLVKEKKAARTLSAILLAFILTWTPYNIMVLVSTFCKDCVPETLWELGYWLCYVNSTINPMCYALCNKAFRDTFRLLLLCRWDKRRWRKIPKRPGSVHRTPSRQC
Test: mAChR M1 cell-based functional assay: calcium mobilization, positive allosteric modulator mode (increase in EC20 acetylcholine response)
Settings: Table 2, human M1; for EC50: read-out: Human M1 EC50; for Emax: read-out: Human M1 Emax (%)
How it was run: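 Calcium-flux assay in CHO-K1 cells stably expressing human M1, loaded with Fluo-4 AM (50 min, 37 °C) and read at 1 Hz. Compound (11-point, 1:3 series) was added at 4 s, EC20 acetylcholine at 144 s and EC80 at 230 s. PAM activity is the concentration-dependent rise in the EC20 response, fitted with a four-parameter logistic.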

EC50 [nM] | Emax [%] | SMILES
56.2 | 63.4 | Cn1ccc(-c2ccc(Cc3cc(C(=O)N[C@@H]4COCC[C@H]4O)nc4ccsc34)cn2)n1 [Compound 410]
77 | 57.6 | Cn1ccc(-c2ccc(Cc3cc(C(=O)N[C@H]4CCCCC[C@@H]4O)nc4ccsc34)cn2)n1 [Compound 411]
222 | 69.1 | Cn1ccc(-c2ccc(Cc3cc(C(=O)N[C@@H]4CC[C@H]4O)nc4ccsc34)cn2)n1 [Compound 412]
191 | 72.5 | Cn1ccc(-c2ccc(Cc3cc(C(=O)NC[C@H]4CCCO4)nc4ccsc34)cn2)n1 [Compound 413, 7-[[6-(1-methylpyrazol-3-yl)-3-pyridyl]methyl]-N-[[(2R)-tetrahydrofuran-2-yl]methyl]thieno[3,2-b]pyridine-5-carboxamide]
703 | 71.5 | Cn1ccc(-c2ccc(Cc3cc(C(=O)NC[C@@H]4CCCO4)nc4ccsc34)cn2)n1 [Compound 414, 7-[[6-(1-methylpyrazol-3-yl)-3-pyridyl]methyl]-N-[[(2S)-tetrahydrofuran-2-yl]methyl]thieno[3,2-b]pyridine-5-carboxamide]
8350 | 63 | Cn1ccc(-c2ccc(Cc3cc(C(=O)NC4COC4)nc4ccsc34)cn2)n1 [Compound 415]
1290 | 71.4 | COCCNC(=O)c1cc(Cc2ccc(-c3ccn(C)n3)nc2)c2sccc2n1 [Compound 416, N-(2-methoxyethyl)-7-[[6-(1-methylpyrazol-3-yl)-3-pyridyl]methyl]thieno[3,2-b]pyridine-5-carboxamide]
4650 | 66.6 | Cn1ccc(-c2ccc(Cc3cc(C(=O)N[C@H]4CCOC4)nc4ccsc34)cn2)n1 [Compound 417, 7-[[6-(1-methylpyrazol-3-yl)-3-pyridyl]methyl]-N-[(3S)-tetrahydrofuran-3-yl]thieno[3,2-b]pyridine-5-carboxamide]
5130 | 67 | Cn1ccc(-c2ccc(Cc3cc(C(=O)N[C@@H]4CCOC4)nc4ccsc34)cn2)n1 [Compound 418, 7-[[6-(1-methylpyrazol-3-yl)-3-pyridyl]methyl]-N-[(3R)-tetrahydrofuran-3-yl]thieno[3,2-b]pyridine-5-carboxamide]
760 | 70.1 | Cn1ccc(-c2ccc(Cc3cc(C(=O)NC4CC(F)C4)nc4ccsc34)cn2)n1 (stereo not drawn) [Compound 419, N-(3-fluorocyclobutyl)-7-[[6-(1-methylpyrazol-3-yl)-3-pyridyl]methyl]thieno[3,2-b]pyridine-5-carboxamide]
400 | 64.2 | Cn1ccc(-c2ccc(Cc3cc(C(=O)NC4CC(F)(F)C4)nc4ccsc34)cn2)n1 [Compound 420, N-(3,3-difluorocyclobutyl)-7-[[6-(1-methylpyrazol-3-yl)-3-pyridyl]methyl]thieno[3,2-b]pyridine-5-carboxamide]
422 | 66.9 | Cn1ccc(-c2ccc(Cc3cc(C(=O)NCC4CCN4)nc4ccsc34)cn2)n1 (stereo not drawn) [Compound 421, N-(azetidin-2-ylmethyl)-7-[[6-(1-methylpyrazol-3-yl)-3-pyridyl]methyl]thieno[3,2-b]pyridine-5-carboxamide]
1620 | 71.6 | Cn1ccc(-c2ccc(Cc3cc(C(=O)N[C@H]4CCCOC4)nc4ccsc34)cn2)n1 [Compound 422, 7-[[6-(1-methylpyrazol-3-yl)-3-pyridyl]methyl]-N-[(3S)-tetrahydropyran-3-yl]thieno[3,2-b]pyridine-5-carboxamide]
637 | 70.6 | Cn1ccc(-c2ccc(Cc3cc(C(=O)N[C@@H]4CCCOC4)nc4ccsc34)cn2)n1 [Compound 423]
5140 | 65.8 | Cn1ccc(-c2ccc(Cc3cc(C(=O)NC4CN(C5COC5)C4)nc4ccsc34)cn2)n1 [Compound 425]
290 | 62.7 | Cn1ccc(-c2ccc(Cc3cc(C(=O)NC[C@@H]4CCCN4)nc4ccsc34)cn2)n1 [Compound 426]
316 | 64.6 | Cn1ccc(-c2ccc(Cc3cc(C(=O)NC[C@H]4CCCN4)nc4ccsc34)cn2)n1 [Compound 427]
1890 | 70.2 | CCN1CCC[C@H]1CNC(=O)c1cc(Cc2ccc(-c3ccn(C)n3)nc2)c2sccc2n1 [Compound 428]

Second part, the molecule before the results:

SMILES | EC50 [nM] | Emax [%]
O=C(N[C@H]1CCC[C@@H]1O)c1cc(Cc2ccc(-c3cncs3)cc2)c2sccc2n1 [Compound 397, N-[(1S,2S)-2-hydroxycyclopentyl]-7-[(4-thiazol-5-ylphenyl)methyl]thieno[3,2-b]pyridine-5-carboxamide] | 111 | 59.6
O=C(NC1CC2(COC2)C1)c1cc(Cc2ccc(-c3cncs3)cc2)c2sccc2n1 [Compound 398, N-(2-oxaspiro[3.3]heptan-6-yl)-7-[(4-thiazol-5-ylphenyl)methyl]thieno[3,2-b]pyridine-5-carboxamide] | 438 | 60.9
O=C(N[C@H]1CCOC1)c1cc(Cc2ccc(-c3cncs3)cc2)c2sccc2n1 [Compound 399, N-[(3S)-tetrahydrofuran-3-yl]-7-[(4-thiazol-5-ylphenyl)methyl]thieno[3,2-b]pyridine-5-carboxamide] | 4310 | 45.1
O=C(N[C@@H]1CCOC1)c1cc(Cc2ccc(-c3cncs3)cc2)c2sccc2n1 [Compound 400] | 4210 | 51.4
O=C(NC1CC(F)C1)c1cc(Cc2ccc(-c3cncs3)cc2)c2sccc2n1 (stereo not drawn) [Compound 401, N-(3-fluorocyclobutyl)-7-[(4-thiazol-5-ylphenyl)methyl]thieno[3,2-b]pyridine-5-carboxamide] | 4570 | 40.5
O=C(NC1COC1)c1cc(Cc2ccc(-c3cncs3)cc2)c2sccc2n1 [Compound 402, N-(oxetan-3-yl)-7-[(4-thiazol-5-ylphenyl)methyl]thieno[3,2-b]pyridine-5-carboxamide] | > 10000 | 41.7
COCCNC(=O)c1cc(Cc2ccc(-c3cncs3)cc2)c2sccc2n1 [Compound 403, N-(2-methoxyethyl)-7-[(4-thiazol-5-ylphenyl)methyl]thieno[3,2-b]pyridine-5-carboxamide] | 6980 | 60.8
COCCCNC(=O)c1cc(Cc2ccc(-c3cncs3)cc2)c2sccc2n1 [Compound 404, N-(3-methoxypropyl)-7-[(4-thiazol-5-ylphenyl)methyl]thieno[3,2-b]pyridine-5-carboxamide] | 3570 | 56.7
O=C(N[C@H]1CC[C@@H]1O)c1cc(Cc2ccc(-c3cncs3)cc2)c2sccc2n1 [Compound 405] | 428 | 73.5
COCC(C)NC(=O)c1cc(Cc2ccc(-c3cncs3)cc2)c2sccc2n1 (stereo not drawn) [Compound 406, N-(2-methoxy-1-methyl-ethyl)-7-[(4-thiazol-5-ylphenyl)methyl]thieno[3,2-b]pyridine-5-carboxamide] | 5050 | 59.1
O=C(NC1CCOCC1)c1ccc(Cc2cc(C(=O)NC3CCOCC3)nc3ccsc23)cc1 [Compound 407, N-tetrahydropyran-4-yl-7-[[4-(tetrahydropyran-4-ylcarbamoyl)phenyl]methyl]thieno[3,2-b]pyridine-5-carboxamide] | 368 | 69.9
O=C(NC1CC(F)(F)C1)c1ccc(Cc2cc(C(=O)NC3CC(F)(F)C3)nc3ccsc23)cc1 [Compound 408, N-(3,3-difluorocyclobutyl)-7-[[4-[(3,3-difluorocyclobutyl)carbamoyl]phenyl]methyl]thieno[3,2-b]pyridine-5-carboxamide] | 397 | 45
CC1(C)CC(NC(=O)c2ccc(Cc3cc(C(=O)NC4CCOC(C)(C)C4)nc4ccsc34)cc2)CCO1 (stereo not drawn) [Compound 409, N-(2,2-dimethyltetrahydropyran-4-yl)-7-[[4-[(2,2-dimethyltetrahydropyran-4-yl)carbamoyl]phenyl]methyl]thieno[3,2-b]pyridine-5-carboxamide] | 725 | 68.8
COCC(C)NC(=O)c1cc(Cc2ccc(-c3ccn(C)n3)nc2)c2sccc2n1 (stereo not drawn) [Compound 424, N-(2-methoxy-1-methyl-ethyl)-7-[[6-(1-methylpyrazol-3-yl)-3-pyridyl]methyl]thieno[3,2-b]pyridine-5-carboxamide] | 8470 | 68.6
COCCNC(=O)c1cc(Cc2ccc(-n3cccn3)cc2)c2sccc2n1 [Compound 429, N-(2-methoxyethyl)-7-[(4-pyrazol-1-ylphenyl)methyl]thieno[3,2-b]pyridine-5-carboxamide] | 597 | 72.7
COCCCNC(=O)c1cc(Cc2ccc(-n3cccn3)cc2)c2sccc2n1 [Compound 430, N-(3-methoxypropyl)-7-[(4-pyrazol-1-ylphenyl)methyl]thieno[3,2-b]pyridine-5-carboxamide] | 1080 | 72.9
COC1CC(NC(=O)c2cc(Cc3ccc(-n4cccn4)cc3)c3sccc3n2)C1 (stereo not drawn) [Compound 431, N-(3-methoxycyclobutyl)-7-[(4-pyrazol-1-ylphenyl)methyl]thieno[3,2-b]pyridine-5-carboxamide] | 1480 | 69.3
O=C(NC1CN(CC(F)(F)F)C1)c1cc(Cc2ccc(-n3cccn3)cc2)c2sccc2n1 [Compound 432] | 3420 | 47.5
